Test results published in paper PMC4796657, “Functional identification of SLC43A3 as an equilibrative nucleobase transporter involved in purine salvage in mammals” (Scientific Reports, 2015).

These molecules were tested against T1, SLC43A3 (equilibrative nucleobase transporter 1, ENBT1) (Homo sapiens, UniProt Q8NBI5) (assay: cell-based). Conditions: not given.
T1 sequence (Q8NBI5 1-491): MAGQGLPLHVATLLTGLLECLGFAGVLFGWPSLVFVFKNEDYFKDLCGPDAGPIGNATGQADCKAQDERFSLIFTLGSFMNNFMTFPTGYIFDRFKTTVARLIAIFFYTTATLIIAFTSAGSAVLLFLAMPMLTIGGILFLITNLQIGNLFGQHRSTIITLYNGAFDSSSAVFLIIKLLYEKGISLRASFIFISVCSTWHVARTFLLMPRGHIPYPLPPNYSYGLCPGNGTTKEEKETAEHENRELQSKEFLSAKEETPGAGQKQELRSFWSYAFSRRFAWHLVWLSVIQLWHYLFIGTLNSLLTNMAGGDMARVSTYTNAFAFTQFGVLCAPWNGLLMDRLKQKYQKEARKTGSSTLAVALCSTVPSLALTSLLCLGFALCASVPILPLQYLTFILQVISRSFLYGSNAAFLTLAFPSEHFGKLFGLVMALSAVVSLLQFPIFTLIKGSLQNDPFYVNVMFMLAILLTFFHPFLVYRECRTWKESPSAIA

Q: For `O=c1[nH]cnc2nc[nH]c12` [hypoxanthine], which IC50 is on record?
A: The IC50 was 350 µM.

Each molecule was assayed against T1, SLC43A3 (equilibrative nucleobase transporter 1, ENBT1) (assay: inhibition of ENBT1-specific [3H]adenine uptake, about […] at […]). Conditions: read-out: % inhibition at 200 μM.
Assay type: cell-based
Set-up: full length, 491 amino acid residues, stably expressed in MDCKII cells

Q: How did the inhibition at 200 µM turn out when `O=[N+]([O-])c1ccc(CSc2ncnc3c2ncn3C2OC(CO)C(O)C2O)cc1` (centres unmarked) [nitrobenzylthioinosine] was run?
A: Its inhibition at 200 µM is ~40%.

Each molecule was assayed against T1, SLC43A3 (equilibrative nucleobase transporter 1, ENBT1) (assay: inhibition of ENBT1-specific [3H]adenine uptake at […]). Conditions: not given.
Assay type: cell-based
Set-up: full length, 491 amino acid residues, stably expressed in MDCKII cells

Q: With `Nc1nc2nc[nH]c2c(=S)[nH]1` [6-thioguanine] as the molecule, how does the “inhibition of ENBT1-specific [3H]adenine uptake at 200 uM” value (shortened to “inhibition of ENBT1-specific”) read?
A: Its value is “purine and its several analogs, such as 6-thioguanine and mercaptopurine, showed inhibitory activities, suggesting that they are also substrates”.

Q: How did the “inhibition of ENBT1-specific” value turn out when `S=c1[nH]cnc2nc[nH]c12` [mercaptopurine] was run?
A: The value was “purine and its several analogs, such as 6-thioguanine and mercaptopurine, showed inhibitory activities, suggesting that they are also substrates”.

Q: Which “inhibition of ENBT1-specific” value does the source give for `c1ncc2nc[nH]c2n1` [purine] here?
A: The value was “purine and its several analogs, such as 6-thioguanine and mercaptopurine, showed inhibitory activities, suggesting that they are also substrates”.

These molecules were tested against T1, SLC43A3 (equilibrative nucleobase transporter 1, ENBT1) (assay: inhibition of ENBT1-mediated [3H]hypoxanthine uptake; radiolabeled uptake (apparent Km […])). Conditions: not given.
Assay type: cell-based
Set-up: full length, 491 amino acid residues, stably expressed in MDCKII cells

Q: For `Nc1ncnc2nc[nH]c12` [adenine], which IC50 is on record?
A: The IC50 was 13 µM.

What follows are molecules tested against T1, SLC43A3 (equilibrative nucleobase transporter 1, ENBT1) (assay: inhibition of ENBT1-mediated [3H]adenine uptake; radiolabeled uptake (apparent Km […])). Conditions: not given.
Assay type: cell-based
Set-up: full length, 491 amino acid residues, stably expressed in MDCKII cells

Q: For `Nc1nc2nc[nH]c2c(=O)[nH]1` [guanine], which IC50 is on record?
A: The IC50 was 70 µM.

The molecules below were run against T1, SLC43A3 (equilibrative nucleobase transporter 1, ENBT1) (assay: cell-based). Conditions: MDCK-II; [3H]adenine 5 nM, pH 7.4, 22 C, 40 s; read-out: Uptake rate (% of control).
Set-up: full length, 491 amino acid residues, stably expressed in MDCKII cells; species or system MDCKII stably expressing ENBT1; inhibition of ENBT1-specific [3H]adenine (5 nM) uptake, 40 s, 22 C, mock-subtracted, scintillation counting
Description: MDCKII cells stably expressing ENBT1 (1.5 × 10^5 cells/well initially) were grown on 24-well plates for 72 h. The cells in each well were preincubated in 0.25 ml of substrate-free uptake buffer (140 mM NaCl, 5 mM KCl, 0.4 mM KH2PO4, 0.8 mM MgSO4, 1.0 mM CaCl2, 25 mM glucose, and 10 mM HEPES, pH 7.4) for 5 min, unless otherwise indicated. Uptake assays were started by replacing the substrate-free uptake buffer for preincubation with one containing the radioisotope-labeled substrate (0.25 ml). All of the procedures were conducted at 22 °C or 37 °C. Assays were stopped by addition of ice-cold substrate-free uptake buffer (2 ml), and the cells were washed two times with 2 ml of the same buffer. The cells were solubilized in 0.5 ml of 0.2 M NaOH solution containing 0.5% SDS at room temperature for 1 h, and the associated radioactivity was measured by [compound left out] scintillation counting. Cellular protein content was determined by the method of Lowry et al.[28] using bovine serum albumin as the standard. Uptake assays were also conducted in mock cells, which were transfected with empty pCI-neo vector, to estimate nonspecific uptake. To further explore the substrate specificity of ENBT1, we examined the effect of various compounds (10 μM for decynium-22 and 200 μM for the others) on the ENBT1-mediated uptake of [^3H]adenine in SLC43A3 cells (Fig. 2D). […] Because these two molecules were transported by SLC43A3 minimally (Fig. 2A), they are likely to be recognized as very poor substrates with affinities extremely low to act as competitive inhibitors. […] We also examined the effect of various amino acids (5 mM), as ENBT1 is a member of the amino acid transporter family; however, none of them affected the adenine uptake activity of SLC43A3 cells (see Supplementary Table S1 online), supporting a previo

Q: `NC(=O)CC[C@H](N)C(=O)O` [Glutamine] was tested. Which remaining activity at 5000 µM did it give?
A: The remaining activity at 5000 µM was 105 ± 1.3%.

Q: Which remaining activity at 5000 µM does the source give for `N[C@@H](Cc1c[nH]c2ccccc12)C(=O)O` [Tryptophan] here?
A: The remaining activity at 5000 µM was 95.6 ± 1.8%.

Q: With `C[C@@H](O)[C@H](N)C(=O)O` [Threonine] as the molecule, how does the remaining activity at 5000 µM read?
A: The remaining activity at 5000 µM was 99.7 ± 0.7%.

Q: For `CC[C@H](C)[C@H](N)C(=O)O` [Isoleucine], which remaining activity at 5000 µM is on record?
A: Its remaining activity at 5000 µM is 100 ± 1.3%.

Q: Which remaining activity at 5000 µM does the source give for `NC(=O)C[C@H](N)C(=O)O` [Asparagine] here?
A: The remaining activity at 5000 µM was 103 ± 2.7%.

Q: How did the remaining activity at 5000 µM turn out when `C[C@H](N)C(=O)O` [Alanine] was run?
A: The remaining activity at 5000 µM was 103 ± 4%.

Q: For `N[C@@H](CC(=O)O)C(=O)O` [Aspartate], which remaining activity at 5000 µM is on record?
A: The remaining activity at 5000 µM was 99.9 ± 1.3%.

Q: How did the remaining activity at 5000 µM turn out when `N[C@@H](Cc1ccccc1)C(=O)O` [Phenylalanine] was run?
A: The remaining activity at 5000 µM was 98.7 ± 1.1%.

Q: `N=C(N)NCCC[C@H](N)C(=O)O` [Arginine] was tested. Which remaining activity at 5000 µM did it give?
A: Its remaining activity at 5000 µM is 95.8 ± 1.7%.

Q: `CSCC[C@H](N)C(=O)O` [Methionine] was tested. Which remaining activity at 5000 µM did it give?
A: Its remaining activity at 5000 µM is 95.8 ± 1.4%.

Q: How did the remaining activity at 5000 µM turn out when `N[C@@H](Cc1c[nH]cn1)C(=O)O` [Histidine] was run?
A: The remaining activity at 5000 µM was 101 ± 1.8%.

Q: `N[C@@H](Cc1ccc(O)cc1)C(=O)O` [Tyrosine] was tested. Which remaining activity at 5000 µM did it give?
A: The remaining activity at 5000 µM was 105.7 ± 1%.

Q: Which remaining activity at 5000 µM does the source give for `CC(C)[C@H](N)C(=O)O` [Valine] here?
A: The remaining activity at 5000 µM was 101 ± 1.6%.

Q: How did the remaining activity at 5000 µM turn out when `N[C@@H](CO)C(=O)O` [Serine] was run?
A: Its remaining activity at 5000 µM is 105 ± 2.2%.

Q: Which remaining activity at 5000 µM does the source give for `O=C(O)[C@@H]1CCCN1` [Proline] here?
A: Its remaining activity at 5000 µM is 103.4 ± 1%.

Q: `CC(C)C[C@H](N)C(=O)O` [Leucine] was tested. Which remaining activity at 5000 µM did it give?
A: Its remaining activity at 5000 µM is 94 ± 2.5%.

Q: With `NCCCC[C@H](N)C(=O)O` [Lysine] as the molecule, how does the remaining activity at 5000 µM read?
A: The remaining activity at 5000 µM was 96.6 ± 1.2%.

Q: Which remaining activity at 5000 µM does the source give for `N[C@@H](CCC(=O)O)C(=O)O` [Glutamate] here?
A: Its remaining activity at 5000 µM is 103 ± 1.6%.

Q: How did the remaining activity at 5000 µM turn out when `N[C@@H](CS)C(=O)O` [Cysteine] was run?
A: The remaining activity at 5000 µM was 104 ± 0.8%.
